From PubChem BioAssay (NCI) come the findings set out here.

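Protocol summary: plate cells (96-well), add compound at 5 concentrations, incubate 48 h, interpolate endpoints linearly. TGI denotes the concentration required for complete inhibition of growth.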

Test systems include HT29 colon; MDA-MB-435; EKVX NSCLC; OVCAR-8 ovarian; K-562 leukemia; SF-268 CNS; PC-3 prostate; SF-539 CNS; OVCAR-3 ovarian; SN12C renal; UACC-62 melanoma; NCI/ADR-RES ovarian; SK-MEL-5 melanoma; NCI-H460 lung; 786-0 renal; TK-10 renal; SNB-19 CNS; RPMI-8226 leukemia; NCI-H522 lung; RXF 393 renal.
What all share (assay): NCI tumour cell line growth inhibition, 48 h

With `O=C1C=CC(=O)c2c(O)c(NCCN3CCOCC3)c(Cl)c(O)c21`, the TGI is 4.7 µM in the assay on HT29 colon; 4.12 µM in the assay with MDA-MB-435; more than 10 µM in the assay with EKVX NSCLC; more than 10 µM in the assay on OVCAR-8 ovarian; 7.59 µM in the assay on K-562 leukemia; 6.12 µM in the assay with SF-268 CNS. Further, the TGI came out at 7.15 µM with PC-3 prostate; 3.33 µM in the assay on SF-539 CNS; 7.26 µM in the assay on OVCAR-3 ovarian; 3.23 µM in the assay with SN12C renal; 3.03 µM in the assay on UACC-62 melanoma; 4.88 µM in the assay with NCI/ADR-RES ovarian. The TGI in the assay with SK-MEL-5 melanoma is 2.35 µM; with NCI-H460 lung, 3.3 µM; in the assay on 786-0 renal, 5.47 µM; in the assay on TK-10 renal it was more than 10 µM; in the assay with SNB-19 CNS, 3.23 µM.
Turning to `CC(C)(C)OC(=O)NC(Cc1ccccc1)C(=S)N1CCCC1` (configuration not stated), the TGI was 98 µM in the assay on RPMI-8226 leukemia; more than 100 µM in the assay on HT29 colon; 96.9 µM with NCI-H522 lung; more than 100 µM in the assay on EKVX NSCLC; more than 100 µM in the assay with OVCAR-8 ovarian; more than 100 µM with K-562 leukemia. The TGI in the assay on SF-268 CNS, in the assay with SF-539 CNS, in the assay with OVCAR-3 ovarian, in the assay on SN12C renal, with UACC-62 melanoma and in the assay on SK-MEL-5 melanoma was more than 100 µM each time. Besides, the TGI with NCI-H460 lung, in the assay with 786-0 renal, with TK-10 renal, with SNB-19 CNS and in the assay on RXF 393 renal was more than 100 µM each time.
For `O=C(O)CN1CCN2CCCCCCCCN(CC1)CCN(CC(=O)O)CC2`, the TGI in the assay with RPMI-8226 leukemia, in the assay with HT29 colon, in the assay with NCI-H522 lung, with MDA-MB-435, in the assay with EKVX NSCLC and with OVCAR-8 ovarian was more than 100 µM throughout. The TGI in the assay with K-562 leukemia, in the assay on PC-3 prostate, in the assay with SF-539 CNS, in the assay on OVCAR-3 ovarian, with SN12C renal and in the assay on UACC-62 melanoma was more than 100 µM in each case. The TGI with NCI/ADR-RES ovarian, with SK-MEL-5 melanoma, in the assay on NCI-H460 lung, with 786-0 renal, with TK-10 renal and in the assay on SNB-19 CNS was more than 100 µM each time.
In the case of `CON1C(=O)C2(CCCCC2)C(=O)C12C=CC(C)CC2` (configuration not stated), the TGI with RPMI-8226 leukemia, in the assay with HT29 colon, in the assay on NCI-H522 lung, with EKVX NSCLC, with OVCAR-8 ovarian and in the assay on K-562 leukemia was more than 100 µM throughout. Moreover, the TGI in the assay on SF-268 CNS, with SF-539 CNS, with OVCAR-3 ovarian, in the assay with SN12C renal, in the assay on UACC-62 melanoma and in the assay on SK-MEL-5 melanoma was more than 100 µM each time. The TGI with NCI-H460 lung, in the assay on 786-0 renal, in the assay with TK-10 renal, with SNB-19 CNS and with RXF 393 renal was more than 100 µM throughout.
As for `OC(c1cc2ccccc2[nH]1)C(O)(c1cc2ccccc2[nH]1)c1cc2ccccc2[nH]1` (configuration not stated), the TGI in the assay on RPMI-8226 leukemia was more than 245 µM; in the assay on HT29 colon, 36.2 µM; in the assay on NCI-H522 lung it was 37.5 µM; in the assay with EKVX NSCLC, 60.9 µM; in the assay on OVCAR-8 ovarian, 75 µM; with K-562 leukemia, more than 245 µM. Further, the TGI in the assay on SF-268 CNS was 85.2 µM; in the assay on SF-539 CNS, 88.7 µM; in the assay on OVCAR-3 ovarian it was 9.13 µM; in the assay with SN12C renal it was 11.4 µM; in the assay on UACC-62 melanoma, 23.2 µM; with SK-MEL-5 melanoma, 39.8 µM. Besides, the TGI in the assay on NCI-H460 lung is 51.3 µM; in the assay on 786-0 renal, 20.8 µM; in the assay with TK-10 renal it was 90.3 µM; in the assay with SNB-19 CNS, more than 245 µM; in the assay on RXF 393 renal, 29.1 µM.
In the case of `CC1CN=C(N(C(=O)Nc2ccc(Cl)cc2)c2cccc(Cl)c2)S1` (configuration not stated), the TGI in the assay on HT29 colon, in the assay on EKVX NSCLC, in the assay on OVCAR-8 ovarian, in the assay with SF-268 CNS, in the assay on PC-3 prostate and with SF-539 CNS was more than 100 µM throughout. For the same molecule, the TGI with OVCAR-3 ovarian is more than 100 µM; with SN12C renal, 83.9 µM; in the assay on NCI/ADR-RES ovarian, more than 100 µM; in the assay on SK-MEL-5 melanoma, 33.7 µM; in the assay with NCI-H460 lung, more than 100 µM; with 786-0 renal, more than 100 µM. The TGI in the assay with TK-10 renal is 62.1 µM; with SNB-19 CNS, more than 100 µM.
Turning to `CC(=O)/C(=C/N1CC(=O)NC1=S)C(=O)Nc1ccccc1C`, the TGI in the assay with HT29 colon, in the assay with MDA-MB-435, with EKVX NSCLC, in the assay on OVCAR-8 ovarian, in the assay on SF-268 CNS and in the assay on SF-539 CNS was more than 100 µM throughout. Also, the TGI in the assay on OVCAR-3 ovarian, with SN12C renal, with NCI/ADR-RES ovarian, in the assay on SK-MEL-5 melanoma, in the assay on NCI-H460 lung and in the assay on 786-0 renal was more than 100 µM in each case. Moreover, the TGI in the assay on TK-10 renal, with SNB-19 CNS and in the assay with RXF 393 renal was more than 100 µM in each case.
On to `CCCCN(C)CC(C(C)=O)C(c1ccccc1)c1c(O)c2ccccc2oc1=O` (configuration not stated), for which the TGI in the assay on RPMI-8226 leukemia, with HT29 colon, in the assay on NCI-H522 lung, in the assay on EKVX NSCLC, in the assay on OVCAR-8 ovarian and in the assay with K-562 leukemia was more than 100 µM in each case. In addition, the TGI with SF-268 CNS, in the assay on SF-539 CNS, with OVCAR-3 ovarian, in the assay with SN12C renal, in the assay with UACC-62 melanoma and in the assay on SK-MEL-5 melanoma was more than 100 µM each time. The TGI in the assay on NCI-H460 lung, in the assay on 786-0 renal, in the assay on TK-10 renal, in the assay with SNB-19 CNS and with RXF 393 renal was more than 100 µM each time.
